This assay deals with Glucokinase known as hexokinase IV (human GK isoform 1, pancreas form and human GK isoform 2, liver form). Kind of assay: Glucokinase enzymatic activity assay (G6PDH-coupled, NADH absorbance at 340 nm). The format is biochemical. Conditions: 5 mM glucose, 1 mM ATP, 37 nM GK, 10 min at room temperature. As to the method: Glucokinase known as hexokinase IV (human GK isoform 1, pancreas form and human GK isoform 2, liver form) was cloned into an expression vector pET15 fx (Novagen Co.), transformed to E. coli BL21 (DE3) (Invitrogen Co.) strain, expressed, and purified using a nickel column. Then, the glucokinase obtained from dialysis was used in the following assay.
Glucokinase assay was performed by measuring absorbance according to the conventional manner. Briefly speaking, glucokinase converts the substrate glucose to glucose-6-phosphate under certain conditions, and glucose-6-phosphate dehydrogenase irreversibly converts glucose-6-phosphate to gluconate-6-phosphate. During this procedure, NADH is formed, and its absorbance is measured to calculate the enzymatic activity.
In the measurement of the enzymatic activity, each compound was diluted by two-fold from the maximum to the minimum concentrations, and 2 μl of each solution was added to 96 well UV plate (BD bioscience). 60 μl of the first mixture (final concentrations 25 mM Hepes, 25 mM KCl, 2 mM MgCl2, 1 mM DTT) was added, and thoroughly mixed. 38 μl of the enzyme mixture (final concentrations 1 mM ATP, 1 mM NAD, 5 mM glucose, 0.85U G6PDH, 37 nM GK) was added (final volume 100 μl), and the mixture was reacted for 10 min at room temperature. The absorbance of NADH was measured at 340 nm using a UV spectrometer (Molecular Device).
The enzyme activating abilities of the compounds according to the present invention are represented as AC1.5 (the compound concentration at which the enzymatic activity is increased by 1.5 times, nM), which is in the range of 0.001 uM to 30 uM or less, preferably 0.001 uM to 10 uM, more preferably 0.001 uM to 1 uM.
For `OC[C@@H]1CSC(c2cc3cccc(NC4CCOC4)c3[nH]2)=N1` (stereo partly drawn) [Example 3, {(R)-2-[7-(tetrahydro-furan-3-ylamino)-1H-indol-2-yl]-4,5-dihydro-thiazol-4-yl}-methanol], the “AC1.5 (the compound concentration at which the enzymatic activity is increased by 1.5 times)” value was found to be 184 nM.

With `CS(=O)(=O)N1CCC(Nc2cccc3cc(C4=N[C@H](CO)CS4)[nH]c23)C1` (stereo partly drawn) [Example 4, {(R)-2-[7-(1-methanesulfonyl-pyrrolidin-3-ylamino)-1H-indol-2-yl]-4,5-dihydro-thiazol-4-yl}-methanol], the “AC1.5 (the compound concentration at which the enzymatic activity is increased by 1.5 times)” value is reported as 217 nM.

As to `OC[C@@H]1CSC(c2cc3cc(F)cc(NC4CCCC4)c3[nH]2)=N1` [Example 5, [(R)-2-(7-cyclopentylamino-5-fluoro-1H-indol-2-yl)-4,5-dihydro-thiazol-4-yl]-methanol], the “AC1.5 (the compound concentration at which the enzymatic activity is increased by 1.5 times)” value was 7 nM.

As for `OC[C@@H]1CSC(c2cc3cc(F)cc(NC4CCOCC4)c3[nH]2)=N1` [Example 6, {(R)-2-[5-fluoro-7-(tetrahydro-pyran-4-ylamino)-1H-indol-2-yl]-4,5-dihydro-thiazol-4-yl}-methanol], the “AC1.5 (the compound concentration at which the enzymatic activity is increased by 1.5 times)” value stood at 31 nM.

Regarding `OC[C@@H]1CSC(c2cc3cc(Cl)cc(NC4CCCC4)c3[nH]2)=N1` [Example 7, [(R)-2-(5-chloro-7-cyclopentylamino-1H-indol-2-yl)-4,5-dihydro-thiazol-4-yl]-methanol], the “AC1.5 (the compound concentration at which the enzymatic activity is increased by 1.5 times)” value is listed as 7 nM.

Turning to `OC[C@@H]1CSC(c2cc3cc(Cl)cc(NC4CCOCC4)c3[nH]2)=N1` [Example 8, {(R)-2-[5-chloro-7-(tetrahydro-pyran-4-ylamino)-1H-indol-2-yl]-4,5-dihydro-thiazol-4-yl}-methanol], the “AC1.5 (the compound concentration at which the enzymatic activity is increased by 1.5 times)” value is listed as 32 nM.

For `OC[C@@H]1CSC(c2cc3cc(Cl)cc(NC4CCSCC4)c3[nH]2)=N1` [Example 9, {(R)-2-[5-chloro-7-(tetrahydro-thiopyran-4-ylamino)-1H-indol-2-yl]-4,5-dihydro-thiazol-4-yl}-methanol], the “AC1.5 (the compound concentration at which the enzymatic activity is increased by 1.5 times)” value is 24 nM.

As for `OC[C@@H]1CSC(c2cc3cc(Br)cc(NC4CCCC4)c3[nH]2)=N1` [Example 10, [(R)-2-(5-bromo-7-cyclopentylamino-1H-indol-2-yl)-4,5-dihydro-thiazol-4-yl]-methanol], the “AC1.5 (the compound concentration at which the enzymatic activity is increased by 1.5 times)” value was determined as 6 nM.

Regarding `OC[C@@H]1CSC(c2cc3cc(Br)cc(NC4CCOCC4)c3[nH]2)=N1` [Example 11, {(R)-2-[5-bromo-7-(tetrahydro-pyran-4-ylamino)-1H-indol-2-yl]-4,5-dihydro-thiazol-4-yl}-methanol], the “AC1.5 (the compound concentration at which the enzymatic activity is increased by 1.5 times)” value amounted to 14 nM.

`COc1cc(NC2CCCC2)c2[nH]c(C3=N[C@H](CO)CS3)cc2c1` [Example 12, [(R)-2-(7-cyclopentylamino-5-methoxy-1H-indol-2-yl)-4,5-dihydro-thiazol-4-yl]-methanol]: the “AC1.5 (the compound concentration at which the enzymatic activity is increased by 1.5 times)” value was determined as 25 nM.

Take `OC[C@@H]1CSC(c2cc3cc(Oc4cccnc4)cc(NC4CCCC4)c3[nH]2)=N1` [Example 13, {(R)-2-[7-cyclopentylamino-5-(pyridin-3-yloxy)-1H-indol-2-yl]-4,5-dihydro-thiazol-4-yl}-methanol]: the “AC1.5 (the compound concentration at which the enzymatic activity is increased by 1.5 times)” value is reported as 12 nM.

In the case of `OC[C@@H]1CSC(c2cc3cc(Oc4cccnc4)cc(NC4CCOCC4)c3[nH]2)=N1` [Example 14, {(R)-2-[5-(pyridin-3-yloxy)-7-(tetrahydro-pyran-4-ylamino)-1H-indol-2-yl]-4,5-dihydro-thiazol-4-yl}-methanol], the “AC1.5 (the compound concentration at which the enzymatic activity is increased by 1.5 times)” value was 8 nM.

For the molecule `c1cc(NC2CCCC2)c2[nH]c(C3=N[C@H](CN4CCCC4)CS3)cc2c1` [Example 15, cyclopentyl-[2-((R)-4-pyrrolidin-1-ylmethyl-4,5-dihydro-thiazol-2-yl)-1H-indol-7-yl]-amine], the “AC1.5 (the compound concentration at which the enzymatic activity is increased by 1.5 times)” value came out at 400 nM.

Values taken from patent publication US8309586B2, “Glucokinase activators and pharmaceutical compositions containing the same as an active ingredient” (LG Life Sciences Ltd., priority 2007, dated 2012).
